# Patent publication US20100248255A1, “NOVEL PEPTIDES” (KYOWA HAKKO KOGYO CO., LTD, priority 2005, published 2010)
# “Also recorded” adds a separate entry of the source. No end group written: not given here.
# Tests used:
# spleen = assay: Aequorin luminescence, spleen of apoaequorin-expressing mice; format: cell-based, mouse; settings: organ pieces, peptide final concentrations of 1 μmol/L and of 5 μmol/L
# Excerpt: (§1) Whether Peptides 1 to 5, 9 and 10 synthesized in Example 2 have the activity of increasing intracellular calcium ion concentration was investigated using the organs of transgenic mice introduced with the apoaequorin gene and systemically expressing apoaequorin (hereinafter referred to as apoaequorin-expressing mice). In apoaequorin-expressing mouse cells, light is emitted when apoaequorin binds to a calcium ion in the presence of the luminescent substrate coelenterazine and thus the intracellular calcium ion concentration can be monitored. Patent Document (WO02/010371) discloses the method for producing apoaequorin-expressing mice, method for evaluating biologically active substances that use biological samples derived from the mice, and experimental results of evaluating biologically active peptides using the mouse organs as shown below. […] Therefore, apoaequorin-expressing mice can be used in the evaluation of the physiological activities of novel peptides.
# (§2) Apoaequorin-expressing mice were produced according to the method disclosed in Reference Example 4 of Patent Document (WO02/010371). The apoaequorin-expressing mice were sacrificed, individual organs including thymus, spleen, bone, blood vessel, heart, kidney, adrenal gland, pancreas, pituitary gland, and uterus, were removed; and each of the organs was cut into small cubes of approximately 1 to 2 mm^3. Next, in 5-mL tubes (Rohren-Tubes; manufactured by Sarstedt, No. 55.476), three portions of each of the prepared organs were added to 50 μL of a 10 μmol/L solution of coelenterazine (manufactured by Molecular Probes) dissolved in RPMI 1640 medium, and these were cultured at 37° C. for three hours. After culturing, RPMI 1640 medium was added, and then Peptides 1 to 5, 9 and 10 dissolved in RPMI 1640 medium were added 25 seconds after the addition of RPMI 1640 until each peptide had final concentrations of 1 μmol/L and of 5 μmol/L, and the relative luminescence levels were measured every second immediately after the addition of RPMI 1640 medium by using a luminometer (AutoLumat LB953, manufactured by Berthold).
# bone = assay: Aequorin luminescence, bone of apoaequorin-expressing mice; format: cell-based, mouse; settings: organ pieces, peptide final concentrations of 1 μmol/L and of 5 μmol/L
# Excerpt: Whether Peptides 1 to 5, 9 and 10 synthesized in Example 2 have the activity of increasing intracellular calcium ion concentration was investigated using the organs of transgenic mice introduced with the apoaequorin gene and systemically expressing apoaequorin (hereinafter referred to as apoaequorin-expressing mice). In apoaequorin-expressing mouse cells, light is emitted when apoaequorin binds to a calcium ion in the presence of the luminescent substrate coelenterazine and thus the intracellular calcium ion concentration can be monitored. Patent Document (WO02/010371) discloses the method for producing apoaequorin-expressing mice, method for evaluating biologically active substances that use biological samples derived from the mice, and experimental results of evaluating biologically active peptides using the mouse organs as shown below. […]
# Apoaequorin-expressing mice were produced according to the method disclosed in Reference Example 4 of Patent Document (WO02/010371). […] After culturing, RPMI 1640 medium was added, and then Peptides 1 to 5, 9 and 10 dissolved in RPMI 1640 medium were added 25 seconds after the addition of RPMI 1640 until each peptide had final concentrations of 1 μmol/L and of 5 μmol/L, and the relative luminescence levels were measured every second immediately after the addition of RPMI 1640 medium by using a luminometer (AutoLumat LB953, manufactured by Berthold).
# uterus = assay: Aequorin luminescence, uterus of apoaequorin-expressing mice; format: cell-based, mouse; settings: organ pieces, peptide final concentrations of 1 μmol/L and of 5 μmol/L
# Excerpt: as §1, §2
# [1] = test system: cardiac cells of the apoaequorin-expressing mice; assay: Intracellular calcium ion increase (aequorin luminescence), heart of apoaequorin-expressing mice; format: cell-based, mouse
# Method: (§3) A heart or blood vessel is collected from transgenic mice systemically expressing apoaequorin (WO02/010371) produced by introducing an apoaequorin gene expression vector into fertilized eggs. The obtained heart or blood vessel is cut finely into pieces, suspended in a medium containing coelenterazine, and then incubated to incorporate coelenterazine into the cells to form aequorin (a complex of apoaequorin and coelenterazine). Since aequorin luminesces upon binding to intracellular calcium ions, the relative luminescence level in cells before and after addition of a medium containing the peptide or a pharmaceutically acceptable salt thereof is measured in a luminometer every second over time and is used as an indicator of intracellular calcium ion concentration. Increase in the relative luminescence level due to addition of the peptide or pharmaceutically acceptable salt thereof confirms that the peptide or pharmaceutically acceptable salt thereof has the activity to increase intracellular calcium ion concentration.
# as §1, §2
# [2] = test system: vascular cells of the apoaequorin-expressing mice; assay: Intracellular calcium ion increase (aequorin luminescence), blood vessel of apoaequorin-expressing mice; format: cell-based, mouse
# Method: as §3, §1, §2
# [3] = Effect on rat blood pressure (anesthetized rats, bolus injection); format: in vivo; settings: 300 nmol in saline, bolus injection into external jugular vein, anesthetized male Wistar rats
# Method: Catheters are inserted into the external jugular vein and internal carotid artery of an anesthetized animal such as rat or the like, and arterial pressure is measured continuously by connecting the catheter in the internal carotid artery to a blood pressure monitor. The peptide or pharmaceutically acceptable salt dissolved in physiological saline is administered through the external jugular vein.
# Wistar rats (male, 10-weeks old, 250 to 300 g) were anesthetized by intraperitoneally administering Pentobarbital at 50 mg/kg body weight. Catheters were inserted into the external jugular vein and internal carotid artery of the anesthetized rats; the catheter in the internal carotid artery was connected to a blood pressure monitor; 300 nmol of Peptide 2 dissolved in saline (100 μL) was administered from the external jugular vein by bolus injection; and blood pressure was measured continuously.
# thymus = assay: Aequorin luminescence, thymus of apoaequorin-expressing mice; format: cell-based, mouse; settings: organ pieces, peptide final concentrations of 1 μmol/L and of 5 μmol/L
# Excerpt: as §1, §2
# [4] = test system: antiserum (rabbit, Peptide 7-KLH conjugate as antigen); assay: Binding specificity of antiserum by competitive RIA with [125I]-labeled Peptide 1; settings: VGF-derived peptides, sequentially diluted
# Method: As controls, reactions that use RIA buffer instead of the antiserum to measure non-specific binding, and reactions […] that use RIA buffer instead of VGF-derived peptide solutions to measure the maximum binding level were carried out. Reactions for non-specific binding were performed in quadruplicates, and the other reactions were performed in duplicates, and for each of the reactants, the immune complex was precipitated as in the above-mentioned antibody titer measurements, and its radioactivity (cpm) was measured. The average radioactivity of non-specific binding reaction is defined as non-specific binding level N, the radioactivity value for each VGF-derived peptide addition reaction is defined as Y, and the radioactivity value of maximum binding reaction is defined as Z. The percentage ratio (B/B0) of antiserum specific binding level (B) with peptide addition to the maximum binding level (B0), was determined using the following formula.
# B/B0 (%)={(Y−N)/(Z−N)}×100
# Accordingly, the amount of peptide that achieves 50% B/B0, more specifically, the amount of peptide that yields 50% inhibition of the maximum binding level, was used as an indicator of the peptide binding activity to the antiserum.
# The amounts of peptide/tube used for performing the measurements were 0.5, 1, 2, 4, 8, 16, 32, 64, 128, 256, 512 and 1024 fmol for Peptide 1; 1, 2, 4, 8, 16, 32, 64, 128, 256, 512 and 1024 fmol for Peptide 2; 1, 3.3, 10, 33, 100, 333, 1000, 3300, 10,000, 33,000, 100,000, 333,000 and 1,000,000 fmol for Peptide 3; and 1,000, 10,000, 100,000 and 1,000,000 fmol for Peptide 8.
# [5] = organ pieces, peptide final concentrations of 1 μmol/L and of 5 μmol/L
substance,measurement,setting,value
Peptide 2: positions 554 to 577 of human VGF (SEQ ID NO: 3) with C-terminal amide (TLQPPSALRRRHYHHALPPSRHYP-NH2),luminescence in the spleen,spleen,luminescence was observed
same,luminescence in the bone,bone,luminescence was observed
same,luminescence in the uterus,uterus,luminescence was observed
same,intracellular calcium concentration in cardiac cells (RLU per second),"[1]; 1 μmol/L of peptide, added at 25 seconds",increase of intracellular calcium concentration
same,luminescence in the heart,[1]; [5],luminescence was observed
same,intracellular calcium concentration in vascular cells (RLU per second),"[2]; 5 μmol/L of peptide, added at 25 seconds",increase of intracellular calcium concentration
same,luminescence in the blood vessel,[2]; [5],luminescence was observed
same,change in average arterial blood pressure,[3],obvious increase in blood pressure; also recorded: increase of blood pressure
same,luminescence in the thymus,thymus,luminescence was observed
same,inhibition of antiserum binding to [125I]-labeled Peptide 1,[4],same degree of quantity-dependent inhibition
